Where two headings read alike, the source gives them in different places.
Assays:
Human CD73 = target: T1, Human CD73 (Homo sapiens, UniProt P21589); assay: CD73 Enzyme Assay (EnzChek PNP/MESG kinetic readout of AMP hydrolysis); format: biochemical
T1 construct: purchased R&D Systems; host or cells: CHO cells
T1 sequence (P21589 27-549): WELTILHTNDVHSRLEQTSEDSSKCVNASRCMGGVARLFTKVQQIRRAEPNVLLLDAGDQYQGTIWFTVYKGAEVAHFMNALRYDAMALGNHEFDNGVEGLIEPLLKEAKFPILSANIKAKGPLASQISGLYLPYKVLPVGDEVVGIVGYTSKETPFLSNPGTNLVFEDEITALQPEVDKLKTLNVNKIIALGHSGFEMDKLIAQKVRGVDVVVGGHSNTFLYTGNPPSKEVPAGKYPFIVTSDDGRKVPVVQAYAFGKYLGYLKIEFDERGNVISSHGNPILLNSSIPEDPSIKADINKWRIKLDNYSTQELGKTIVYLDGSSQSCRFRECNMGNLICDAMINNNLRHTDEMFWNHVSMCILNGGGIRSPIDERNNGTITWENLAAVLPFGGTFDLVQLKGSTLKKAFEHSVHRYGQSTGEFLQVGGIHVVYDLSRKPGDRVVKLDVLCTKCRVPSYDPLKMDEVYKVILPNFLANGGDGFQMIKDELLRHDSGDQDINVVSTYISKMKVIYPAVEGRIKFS
Experimental: A compound of the present disclosure (5 μL) was transferred to a 384-well assay plate. The compound was added in a 15 point, 3-fold serial dilution (300 μM to 0.0002 μM) in DMSO. […] The plate was immediately placed in a plate reader (Synergy 2 or Spark 10), and a reading was taken every minute for 10 to 20 minutes in a kinetic run at 360 nm. The linear portion of the curve was used to determine the observed rate (initial velocity). Low signal controls containing 100 μM adenosine 5′-(α,β-methylene) diphosphate and high signal controls containing no compound were measured for each plate.
IC50 values were calculated using Dotmatics template equation for 4-parameter fit. Results are expressed as % inhibition using the following equation: […]

[1] = target: T2, CD73 on U138 human neuroglioma cells (Homo sapiens, UniProt P21589); assay: CD73 Cell-Based Assay (inorganic phosphate from AMP, malachite green); conditions: AMP substrate, 2 hours at 37° C.
T2 construct: U138 cells were obtained from ATCC and cultured in DMEM with 10% FBS; host or cells: U138 human neuroglioma cells
T2 sequence (P21589 27-549): T1 sequence (P21589 27-549)
Experimental: U138 human neuroglioma cells were used in these experiments. U138 cells were obtained from ATCC and cultured in DMEM with 10% FBS. 2500 cells were seeded into 96-well plate with 100 μL of media the day before the experiment. […] After washing, 100 μL of buffer was added to each well, then 100 μL of a mixture of AMP substrate (200 μM) and diluted compound was added to each well. The cells were incubated at 37° C. (with 5% CO2) for 2 hours. 50 μL of supernatant was transferred to a 96-well assay plate and the concentration of inorganic phosphate was determined using malachite green reagent (R&D System; Cat: DY996).

[2] = 0.25 nM hCD73, 25 μM AMP, read-out: CD73 Enzyme Assay IC50
[3] = read-out: CD73 Cell-Based assay IC50

| SMILES | IC50 (Human CD73; [2]) [nM] | IC50 [1, 3] [nM] | IC50 ([1]; read-out: IC50) [nM] | IC50 (Human CD73) [nM] |
| --- | --- | --- | --- | --- |
| N#Cc1c(Cl)nc2c(ccn2[C@@H]2O[C@H](COP(=O)(O)CP(=O)(O)O)[C@@H](O)[C@H]2O)c1NC1CCOC1 (stereo partly drawn) [Compound 224] | < 10 | < 10 |  |  |
| C[C@H](Nc1c(C#N)c(Cl)nc2c1ccn2[C@@H]1O[C@H](CS(=O)(=O)CP(=O)(O)O)[C@@H](O)[C@H]1O)c1cccc(C#N)c1 [Compound 190] | < 10 | < 10 |  |  |
| N#Cc1c(Cl)nc2c(ccn2[C@@H]2O[C@H](COCP(=O)(O)O)[C@@H](O)[C@H]2O)c1N1CCC(F)(F)C1 [Compound 13, ((((2R,3S,4R,5R)-5-(6-chloro-5-cyano-4-(3,3-difluoropyrrolidin-1-yl)-1H-pyrrolo[2,3-b]pyridin-1-yl)-3,4-dihydroxytetrahydrofuran-2-yl)methoxy)methyl)phosphonic acid] | < 10 | < 10 |  |  |
| N#Cc1c(Cl)nc2c(cnn2[C@@H]2O[C@H](COCP(=O)(O)O)[C@@H](O)[C@H]2O)c1N1CC(F)(F)C1 [Compound 78] | < 10 | < 10 |  |  |
| N#Cc1nc2c(ccn2[C@@H]2O[C@H](COCP(=O)(O)O)[C@@H](O)[C@H]2O)c(NC2CCCC2)c1C#N [Compound 104] | < 10 | < 10 |  |  |
| C[C@@H](Nc1c(C#N)c(Cl)nc2c1ccn2[C@@H]1O[C@H](CS(=O)(=O)CP(=O)(O)O)[C@@H](O)[C@H]1O)c1cccc(C#N)c1 [Compound 179] | < 10 | < 10 |  |  |
| C[C@@H](Nc1c(C#N)c(Cl)nc2c1ccn2[C@@H]1O[C@H](CS(=O)(=O)CP(=O)(O)O)[C@@H](O)[C@H]1O)c1ccc(C#N)cc1 [Compound 178] | < 10 | < 10 |  |  |
| O=P(O)(O)CS(=O)(=O)C[C@H]1O[C@@H](n2ccc3c(NC4CCCC4)cc(Cl)nc32)[C@H](O)[C@@H]1O [Compound 323] | < 10 | < 10 | 1.4 |  |
| N#Cc1c(Cl)nc2c(cnn2[C@@H]2O[C@H](COCP(=O)(O)O)[C@@H](O)[C@H]2O)c1N1C[C@@H](F)[C@@H](F)C1 [Compound 91, ((((2R,3S,4R,5R)-5-(6-chloro-5-cyano-4-((3S,4R)-3,4-difluoropyrrolidin-1-yl)-1H-pyrazolo[3,4-b]pyridin-1-yl)-3,4-dihydroxytetrahydrofuran-2-yl)methoxy)methyl)phosphonic acid] | < 10 | < 10 |  |  |
| N#Cc1nc2c(ccn2[C@@H]2O[C@H](COCP(=O)(O)O)[C@@H](O)[C@H]2O)c(N2CCC(F)(F)C2)c1C#N [Compound 105] | < 10 | < 10 |  |  |
| N#Cc1c(Cl)nc2c(ccn2[C@@H]2O[C@H](COCP(=O)(O)O)[C@@H](O)[C@H]2O)c1N[C@H]1CCC(F)(F)C1 [Compound 4] | < 10 | < 10 |  |  |
| N#Cc1c(Cl)nc2c(ncn2[C@@H]2O[C@H](COCP(=O)(O)O)[C@@H](O)[C@H]2O)c1N1CC(F)(F)C1 [Compound 82] | < 10 | < 10 |  |  |
| N#Cc1c(Cl)nc2c(ccn2[C@@H]2O[C@H](CS(=O)(=O)CP(=O)(O)O)[C@@H](O)[C@H]2O)c1NC1CC2(CC2)C1 [Compound 159] | < 10 | < 10 |  |  |
| N#Cc1c(Cl)nc2c(ccn2[C@@H]2O[C@H](CS(=O)(=O)CP(=O)(O)O)[C@@H](O)[C@H]2O)c1N1CC2CC2C1 (stereo partly drawn) [Compound 22] | < 10 | < 10 |  |  |
| N#Cc1c(Cl)nc2c(ccn2[C@@H]2O[C@H](COP(=O)(O)CP(=O)(O)O)[C@@H](O)[C@H]2O)c1NC1CCCC1 [Compound 3, (((((2R,3S,4R,5R)-5-(6-chloro-5-cyano-4-(cyclopentylamino)-1H-pyrrolo[2,3-b]pyridin-1-yl)-3,4-dihydroxytetrahydrofuran-2-yl)methoxy)(hydroxy)phosphoryl)methyl)phosphonic acid] | < 10 | < 10 |  |  |
| C[C@H](Nc1c(C#N)c(Cl)nc2c1ncn2[C@@H]1O[C@H](COP(=O)(O)CP(=O)(O)O)[C@@H](O)[C@H]1O)c1ccc(F)cc1 [Compound 215, (((((2R,3S,4R,5R)-5-(5-chloro-6-cyano-7-(((S)-1-(4-fluorophenyl)ethyl)amino)-3H-imidazo[4,5-b]pyridin-3-yl)-3,4-dihydroxytetrahydrofuran-2-yl)methoxy)(hydroxy)phosphoryl)methyl)phosphonic acid] |  | < 10 |  | < 10 |

| SMILES | IC50 (Human CD73; [2]) [nM] | IC50 [1, 3] [nM] | IC50 ([1]; read-out: IC50) [nM] | IC50 (Human CD73) [nM] |
| --- | --- | --- | --- | --- |
| CN(c1c(C#N)c(Cl)nc2c1ccn2[C@@H]1O[C@H](COCP(=O)(O)O)[C@@H](O)[C@H]1O)C1CC(F)(F)C1 [Compound 153] | < 10 | 10 to 100 |  |  |
| N#Cc1c(Cl)nc2c(ncn2[C@@H]2O[C@H](COP(=O)(O)CP(=O)(O)O)[C@@H](O)[C@@H]2F)c1N1CCC(F)(F)C1 [Compound 97] | < 10 | < 10 |  |  |
| N#Cc1c(Cl)nc2c(cnn2[C@@H]2O[C@H](CS(=O)(=O)CP(=O)(O)O)[C@@H](O)[C@H]2O)c1N[C@H]1C[C@@H](F)C1 [Compound 150] | < 10 | < 10 |  |  |
| N#Cc1nc2c(ccn2[C@@H]2O[C@H](CS(=O)(=O)CP(=O)(O)O)[C@@H](O)[C@H]2O)c(NC2CC(F)(F)C2)c1C#N [Compound 177] | < 10 | < 10 |  |  |
| C[C@H](Nc1c(C#N)c(Cl)nc2c1ccn2[C@@H]1O[C@H](CS(=O)(=O)CP(=O)(O)O)[C@@H](O)[C@H]1O)c1ccc(C#N)cc1 [Compound 198] | < 10 | < 10 |  |  |
| N#Cc1c(Cl)nc2c(ncn2[C@@H]2O[C@H](COCP(=O)(O)O)[C@@H](O)[C@H]2O)c1N1CC[C@H](F)C1 [Compound 84] | < 10 | < 10 |  |  |
| C[C@@H](Nc1c(C#N)c(Cl)nc2c1ccn2[C@@H]1O[C@H](COP(=O)(O)CP(=O)(O)O)[C@@H](O)[C@@H]1F)c1ccc(C#N)cc1 [Compound 239] | < 10 | < 10 |  |  |
| N#Cc1c(Cl)nc2c(ccn2[C@@H]2O[C@H](COCP(=O)(O)O)[C@@H](O)[C@H]2O)c1N1CC2CCCC2C1 (stereo partly drawn) [Compound 11] | < 10 | < 10 |  |  |
| N#Cc1c(Cl)nc2c(ccn2[C@@H]2O[C@H](CS(=O)(=O)CP(=O)(O)O)[C@@H](O)[C@H]2O)c1NC1CCCC1 [Compound 25, (((((2S,3S,4R,5R)-5-(6-chloro-5-cyano-4-(cyclopentylamino)-1H-pyrrolo[2,3-b]pyridin-1-yl)-3,4-dihydroxytetrahydrofuran-2-yl)methyl)sulfonyl)methyl)phosphonic acid] | < 10 | < 10 | 0.1 |  |
| C[C@@H](Nc1c(C#N)c(Cl)nc2c1ncn2[C@@H]1O[C@H](COP(=O)(O)CP(=O)(O)O)[C@@H](O)[C@H]1O)c1ccccc1F [Compound 208, (((((2R,3S,4R,5R)-5-(5-chloro-6-cyano-7-(((R)-1-(2-fluorophenyl)ethyl)amino)-3H-imidazo[4,5-b]pyridin-3-yl)-3,4-dihydroxytetrahydrofuran-2-yl)methoxy)(hydroxy)phosphoryl)methyl)phosphonic acid] | < 10 | < 10 |  |  |
| N#Cc1c(Cl)nc2c(c(F)cn2[C@@H]2O[C@H](CS(=O)(=O)CP(=O)(O)O)[C@@H](O)[C@H]2O)c1N1CCC(F)(F)C1 [Compound 152] | < 10 | > 100 |  |  |
| N#Cc1c(Cl)nc2c(ncn2[C@@H]2O[C@H](CS(=O)(=O)CP(=O)(O)O)[C@@H](O)[C@H]2O)c1N[C@H]1C[C@H](F)C1 [Compound 136] | 10 to 100 | < 10 |  |  |
| N#Cc1c(Cl)nc2c(ccn2[C@@H]2O[C@H](CS(=O)(=O)CP(=O)(O)O)[C@@H](O)[C@@H]2F)c1N [Compound 173] | 10 to 100 | > 100 |  |  |
| N#Cc1nc2c(ccn2[C@@H]2O[C@H](COP(=O)(O)CP(=O)(O)O)[C@@H](O)[C@H]2O)c(NC2CC3(CC3)C2)c1Cl [Compound 206] | < 10 | < 10 |  |  |
| N#Cc1c(Cl)nc2c(ccn2[C@@H]2O[C@H](COCP(=O)(O)O)[C@@H](O)[C@H]2O)c1N1CC2CC2C1 (stereo partly drawn) [Compound 12] | < 10 | < 10 |  |  |
| C[C@@H](Nc1c(C#N)c(Cl)nc2c1ncn2[C@@H]1O[C@H](COP(=O)(O)CP(=O)(O)O)[C@@H](O)[C@@H]1F)c1ccc(F)cc1 [Compound 250] | < 10 | < 10 |  |  |

— US12331068B2, “Compositions and methods for inhibiting CD73” (Peloton Therapeutics, Inc., priority 2018, dated 2025)
